For series [1] the following is noted: cited from earlier work.
A short description of series [2]: Solubility Comparison in water. It counts as physicochemical. The following applies: for Water added: to dissolve 100 mg completely. The method, then: (§1) The solubility of MBTH.HCl was compared with that of NaCMBTH. One hundred mg samples of each of MBTH.HCl (Aldrich) and NaCMBTH were placed into test tubes. Water was added in 50 μ-L aliquots until the sample completely dissolved.

The nature of series [3]: Relative Molar Extinction Coefficients (absorbance of dye formed with N-ethylanilinopropanamine, POD and H2O2). The conditions noted are these: pH 6.5 phosphate buffer, same molar concentration, coupled with N-ethylanilinopropanamine hydrochloride. It counts as physicochemical. The protocol:
The relative absorbance of MBTH and sodium carboxy MBTH, an illustrative soluble hydrazone compound, was measured and compared. Since each compound was measured at the same molar concentration, the molar extinction was proportional to the […].
Each sample contained the following:
1 mL phosphate buffer, 0.035M, pH 6.5
10 μL R-MBTH solution, 10 mM, where R=H or COONa
100 μL N-ethylanilinopropanamine hydrochloride, 10 mM
10 μL POD solution, ~120 IU/mL
A 1-mL aliquot of each solution was transferred to a cuvette and diluted with an addition 2 mL of phosphate buffer solution.

The nature of series [4]: Solubility Comparison in pH 7 buffer. It counts as physicochemical. The following applies: for solubility: 0.1m phosphate buffer, aqueous buffer, pH 7 buffer (phosphate, 0.1M); for Water added: to dissolve 100 mg completely, pH 7 buffer (phosphate, 0.1M) instead of water. The protocol: as §1
An identical experiment was performed using pH 7 buffer (phosphate, 0.1M) instead of water.

The nature of series [5]: Heat Stability on coated polyester fabric at 120° C. It counts as physicochemical. The conditions noted are these: for Density: 120° C., absorbance at 310 nm. The protocol:
In order to evaluate the heat stability of sodium carboxy MBTH, 38 mg. of either MBTH.HCl or NaCMBTH was added to 1.2 mL water to dissolve. Then, 0.75 mL of this solution was added to 21 mg Hydrisel SX 660, a commercial surfactant and […] 0.1% ACP polymer (ISP Technologies), prepared in 70% isopropanol solution. Each solution was coated onto a 4-inch wide polyester fabric in a thin layer and dried at 40° C. for fifteen minutes. The coated fabric was sealed in an airtight foil bag and stored at 4° C.
Small samples (2 cm×5 cm) of each coated fabric were placed into a 120° C. oven and removed at appropriate intervals. The heat-stressed fabric samples were assayed spectrophotometrically.
The fabric samples were placed into a tared test tube and weighed. Ten mL of 20 mM phosphate buffer, pH 7.0, was added. The tubes were capped and agitated for ten minutes at room temperature. Absorbance at 310 nm was read for each sample and the values were compared against a standard curve.

Where a name gives a salt, the structure may show the parent alone. Read-outs that look alike come from different tables or passages of the source. Some results are limits rather than exact numbers.

As to `Cn1c(=NNS(=O)(=O)O)sc2ccccc21` [3-methyl-2-sulfonyl-benzothiazolononhydrazone], the “solubility in water compared with MBTH” value in series [1] (U.S. Pat. No. 4,101,381) is “much poorer solubility in water than MBTH”.
As usually defined, the solubility is how much of the substance goes into solution per volume. On to `Cn1c(=NN)sc2ccccc21` [MBTH.HCl, 3-methyl benzothiazolone-2-hydrazone HCL], for which the solubility was 34 mg/mL in series [2] and less than 10 mg/mL in series [4]. In addition, the Water added is 2900 µL in series [2] and more than 9600 µL in series [4]. Besides, the “water solubility of the dye formed in the color reactions” value in series [1] is given as “relatively poor water solubility”. Moreover, the heat stability result in series [1] (dry form, 60° C., as noted in U.S. Pat. No. 4,101,381) is “insufficiently stable”; in series [5] (after only two hours at 120° C.), “effectively decomposed”. In series [1] (pH, absence of hydrogen peroxide), the “usable pH (autoxidative color reaction otherwise)” value is listed as “below 7”. In series [3], the “Absorbance at 600 nm” value was determined as 0.1513 absorbance units. The results for the Density in series [5] (time 0) and in series [5] (time 4 (hours)) were 114.7 mg/m^2 and 10.2 mg/m^2, respectively.
`Cn1c(=NN)sc2cc(C(=O)O)ccc21` [NaCMBTH, 3-methylbenzothiazolone-2-hydrazone-6-carboxylic acid, sodium salt]: the solubility in series [2] was 87 mg/mL; in series [4], 174 mg/mL. Further, the figures for the Water added in series [2] and in series [4] were 1150 µL and 575 µL, respectively. Besides, in series [3], the “Absorbance at 600 nm” value came to 0.2115 absorbance units. Further, the Density in series [5] (time 0) stood at 75.4 mg/m^2; in series [5] (time 4 (hours)), 50.4 mg/m^2; in series [5] (time 6 (hours)), 51.2 mg/m^2; in series [5] (time 23 (hours)) it was 50.3 mg/m^2. Moreover, the heat stability result was “retains most of its activity” in series [5] (after 23 hours at 120° C.) and “still viable” in series [5] (after six hours at 120° C.).

The values above are taken from patent US5710012A, “Salt of 6-carboxy-3-methylbenzothiazolone hydrazone hydrate in colorimetric determination of hydrogen peroxide” (ActiMed Laboratories, Inc., priority 1994, dated 1998).
